This passage reports B incorporation and IC50 results from ChEMBL document CHEMBL1130134, “Synthesis of carboranes containing an azulene framework and in vitro evaluation as boron carriers” (J Med Chem, 1997).

The test system of assay [1] is B16. Description: Boron incorporation into B-16 melanoma cells(1000000 cells) after 24 hours incubation (10.8 ug of B/mL). The class given is functional, Mus musculus.
Assay [2] concerns B16. Description: Compound was tested for the in vitro growth inhibition of B-16 melanoma cells after incubation for 3 days (cytotoxicity), the dose that failed to inhibit cell growth by more than 50% was determined. Format: functional, cell-based. The note with it: Mus musculus, B16, 72 h.

With `CC(C)(c1ccc(O)cc1)c1ccc(O)cc1` [BISPHENOL A], in the assay on B16 [1], the B incorporation came to 0.31 µg. The compound further gave an IC50 in the assay with B16 [2] of 8.6 mM.

Broadly, the IC50 is the concentration that inhibits the measured activity by half. Low values mean greater potency, high ones weaker potency.
